Test results as given in US20150119373A1, “NOVEL BETULINIC ACID DERIVATIVES AS HIV INHIBITORS” (HETERO RESEARCH FOUNDATION, priority 2012, published 2015).

Tests used:
HIV-1 strain 92HT599 = assay: Antiviral activity: p24 estimation in MT2 cells infected with HIV-1 strain 92HT599; assay type: cell-based; conditions: Human immunodeficiency virus 1, MT2 cells, HIV-1 92HT599, ~96 hours, p24; for inhibition at 0.1 µM: 100 nM, read-out: Antiviral activity % inhibition 100 nM; for inhibition at 1 µM: 1000 nM, read-out: Antiviral activity % inhibition 1000 nM
Summary of the method: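 Infection of MT2 cells used 10 TCID50/30000 cells, with compound present at ≤1% DMSO for ~96 h. p24 in well aliquots was quantified by kit. Percent inhibition is relative to vehicle controls.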

[1] = Cyto-toxicity assay (MTT) in MT2 cells without virus; assay type: cell-based; conditions: human
Procedure: For cyto-toxicity assay the same amount of MT2 cells as in antiviral assay without virus was added to the 96 well plates. The cyto-toxicity was measured using MTT reagent in parallel with p24 estimation. The percent viability is calculated in comparison with vehicle control.

[2] = Single dose oral pharmacokinetic study in rat; assay type: in vivo; conditions: plasma, Rat oral PK @30 mg/kg (Table 3); for half-life: read-out: t½ (converted)
Procedure: The test item was administered through oral route to animals (rat/mice) at 30 mg/kg dose in a suitable vehicle at 10 ml/kg dose volume. Blood samples (˜50 uL at each time point) were collected from retro-orbital plexus using K3 EDTA as anticoagulant in eppendorf tubes at defined time intervals under light ether anesthesia. The samples were centrifuged at 3500×g to separate plasma and stored at −80° C. until analysis.
Sample analysis: Test samples were analyzed using LC-MS-MS after developing fit-for-purpose method for each of test compound.

[3] = Single dose oral pharmacokinetic study in mice; assay type: in vivo; conditions: for half-life: read-out: t½ (converted)
Summary of the method: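 Mice or rats dosed orally at 30 mg/kg in a suitable vehicle (10 ml/kg). Retro-orbital blood on K3 EDTA at defined time points under light ether anaesthesia; plasma analysed by LC-MS-MS.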

[4] = mouse, plasma, Mice oral PK @30 mg/kg (Table 4)
[5] = mouse, plasma, Mice oral PK @30 mg/kg (Table 4), read-out: AUC 0-t
[6] = mouse, plasma, Oral PK @ 30 mg/ kg dose in mice (Table 6)

Structure (SMILES) | inhibition at 0.1 µM (HIV-1 strain 92HT599) | inhibition at 1 µM (HIV-1 strain 92HT599) | viability at 100 nM [1] | viability at 1000 nM [1] | AUC(0-inf) [2] | AUC(0-t) [2] | Cmax [2] | half-life [2] | AUC(0-inf) [3, 4] | Cmax [3, 4] | AUC(0-t) [3, 5] | half-life [3, 4] | Tlast ([3]; Oral PK @ 30 mg/ kg dose in mice (Table 6)) | AUC(0-inf) [3, 6] | Cmax [3, 6] | Tmax [3, 6] | AUC(0-t) ([3]; mouse, plasma, Oral PK @ 30 mg/ kg dose in mice (Table 6), read-out: AUCt)
C=C(C)[C@@H]1CC[C@]2(C(=O)O)CC[C@]3(C)[C@H](CC[C@@H]4[C@@]5(C)CC[C@H](OC(=O)[C@H]6[C@@H](CC(=O)O)C6(C)C)C(C)(C)[C@@H]5CC[C@]43C)[C@@H]12 [Compound 1, (1R,3aS,5aR,5bR,7aR,9S,11aR,11bR,13aR,13bR)-9-((1S,3R)-3-(carboxymethyl)-2,2-dimethylcyclopropanecarbonyloxy)-5a,5b,8,8,11a-pentamethyl-1-(prop-1-en-2-yl)icosahydro-1H-cyclopenta[a]chrysene-3a-carboxylic acid] | 95% | 100% | 96% | 92% | 3230 ng·h/mL | 3120 ng·h/mL | 1220 ng/mL | 1.53 h | 36700 ng·h/mL | 8790 ng/mL | 35900 ng·h/mL | 6.23 h | – | – | – | – | –
CC(C)(CC(=O)O[C@H]1CC[C@]2(C)[C@H]3CC[C@@H]4[C@H]5[C@H](C6(C)CC6)CC[C@]5(C(=O)N[C@@H]5C[C@H](C(=O)N6CCCCC6)C5(C)C)CC[C@@]4(C)[C@]3(C)CC[C@H]2C1(C)C)C(=O)O [Example 4, 4-((1R,3aS,5aR,5bR,7aR,9S,11aR,11bR,13aR,13bR)-3a-((1R,3S)-2,2-dimethyl-3-(piperidine-1-carbonyl)cyclobutylcarbamoyl)-5a,5b,8,8,11a-pentamethyl-1-(1-methylcyclopropyl)icosahydro-1H-cyclopenta[a]chrysen-9-yloxy)-2,2-dimethyl-4-oxobutanoicacid] | 98% | 98% | 82% | 86% | 22600 ng·h/mL | 22300 ng·h/mL | 5920 ng/mL | 4.44 h | 155000 ng·h/mL | 9780 ng/mL | 138000 ng·h/mL | 14.5 h | – | – | – | – | –
C=C(C)[C@@H]1CC[C@]2(C(=O)N[C@@H]3C[C@H](c4nnc(C)o4)C3(C)C)CC[C@]3(C)[C@H](CC[C@@H]4[C@@]5(C)CC[C@H](OC(=O)CC(C)(C)C(=O)O)C(C)(C)[C@@H]5CC[C@]43C)[C@@H]12 [Example 11, 4-((1R,3aS,5aR,5bR,7aR,9S,11aR,11bR,13aR,13bR)-3a-((1R,3S)-2,2-dimethyl-3-(5-methyl-1,3,4-oxadiazol-2-yl)cyclobutylcarbamoyl)-5a,5b,8,8,11a-pentamethyl-1-(prop-1-en-2-yl)icosahydro-1H-cyclopenta[a]chrysen-9-yloxy)-2,2-dimethyl-4-oxo butanoicacid] | 100% | 100% | 96% | 98% | 8160 ng·h/mL | 8050 ng·h/mL | 1970 ng/mL | 3.66 h | 138000 ng·h/mL | 11300 ng/mL | 115000 ng·h/mL | 3.66 h | – | – | – | – | –
CC(C)(CC(=O)O[C@H]1CC[C@]2(C)[C@H]3CC[C@@H]4[C@H]5[C@H](C6(C)CC6)CC[C@]5(C(=O)N5CCC(C#N)(c6ccccc6)CC5)CC[C@@]4(C)[C@]3(C)CC[C@H]2C1(C)C)C(=O)O [Example 56, 4-((1R,3aS,5aR,5bR,7aR,9S,11aR,11bR,13aR,13bR)-3a-(4-cyano-4-phenylpiperidine-1-carbonyl)-5a,5b,8,8,11a-pentamethyl-1-(1-methylcyclopropyl)icosahydro-1H-cyclopenta[a]chrysen-9-yloxy)-2,2-dimethyl-4-oxobutanoic acid] | 76% | 99% | 83% | 80% | – | – | – | – | – | – | – | – | 24 h | 185000 ng·h/mL | 5900 ng/mL | 7 h | 95500 ng·h/mL
